Molecular target: rPlp (Plp) (Vibrio anguillarum, UniProt Q4ZHV5)
Assay: TLC with fluorescence scanning of BODIPY-lysophosphatidylcholine formation
Format: biochemical
Settings: 20 uM substrate stock mixed 1:1 with enzyme; rPlp routinely 4 ug/ml; no divalent metal needed; labelled compound

rPlp (Plp), sequence (Q4ZHV5 1-416 limits assumed): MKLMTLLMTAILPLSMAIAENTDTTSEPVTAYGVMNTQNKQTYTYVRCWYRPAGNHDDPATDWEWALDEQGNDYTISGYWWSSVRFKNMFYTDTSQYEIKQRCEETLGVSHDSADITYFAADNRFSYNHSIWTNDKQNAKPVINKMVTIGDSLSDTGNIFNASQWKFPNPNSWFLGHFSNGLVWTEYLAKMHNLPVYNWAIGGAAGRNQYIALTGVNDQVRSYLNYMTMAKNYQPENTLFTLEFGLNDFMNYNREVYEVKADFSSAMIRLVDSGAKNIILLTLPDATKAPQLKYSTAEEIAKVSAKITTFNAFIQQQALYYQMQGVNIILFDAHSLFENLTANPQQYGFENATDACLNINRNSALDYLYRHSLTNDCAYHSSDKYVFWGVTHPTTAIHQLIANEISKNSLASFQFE

Q: `CCCCCCCCCC(=O)O[C@H](COCCCCCCCCCCCNC(=O)CCc1ccc2n1[B-](F)(F)[N+]1=C(C)C=C(C)C1=C2)COP(=O)([O-])OCC[N+](C)(C)C` [BPC, 2-decanoyl-1-(O-(11-(4,4-difluoro-5,7-dimethyl-4-bora-3a,4a-diaza-s-indacene-3-propionyl)amino)undecyl)-sn-glycero-3-phosphocholine] was tested. Which “TLC with fluorescence scanning of BODIPY-lysophosphatidylcholine formation” value did it give?
A: rPlp exhibited high activity against phosphatidylcholine, cleaving BPC to yield BLPC and free fatty acid
